Values joined by “and” are separate entries in the source; they are usually repeats but may differ in a detail not shown here. Equal entries are not always repeated. Active and inactive are the calls of the source. The calls are words filed in the database; no cut-off is given here.
Experiments:
CREB-binding protein [1] = target: T1, CREB-binding protein (Homo sapiens, UniProt Q92793); test: Induction of CBP degradation in human RS4-11 cells incubated for 4 hrs by Western blot assay; type: cell-based
CREB-binding protein [2] = target: T1, CREB-binding protein; test: Induction of CBP degradation in human RS4-11 cells assessed as maximal degradation incubated for 4 hrs by Western blot assay; type: cell-based
Target sequence in this assay (Q92793 2-2442 limits assumed): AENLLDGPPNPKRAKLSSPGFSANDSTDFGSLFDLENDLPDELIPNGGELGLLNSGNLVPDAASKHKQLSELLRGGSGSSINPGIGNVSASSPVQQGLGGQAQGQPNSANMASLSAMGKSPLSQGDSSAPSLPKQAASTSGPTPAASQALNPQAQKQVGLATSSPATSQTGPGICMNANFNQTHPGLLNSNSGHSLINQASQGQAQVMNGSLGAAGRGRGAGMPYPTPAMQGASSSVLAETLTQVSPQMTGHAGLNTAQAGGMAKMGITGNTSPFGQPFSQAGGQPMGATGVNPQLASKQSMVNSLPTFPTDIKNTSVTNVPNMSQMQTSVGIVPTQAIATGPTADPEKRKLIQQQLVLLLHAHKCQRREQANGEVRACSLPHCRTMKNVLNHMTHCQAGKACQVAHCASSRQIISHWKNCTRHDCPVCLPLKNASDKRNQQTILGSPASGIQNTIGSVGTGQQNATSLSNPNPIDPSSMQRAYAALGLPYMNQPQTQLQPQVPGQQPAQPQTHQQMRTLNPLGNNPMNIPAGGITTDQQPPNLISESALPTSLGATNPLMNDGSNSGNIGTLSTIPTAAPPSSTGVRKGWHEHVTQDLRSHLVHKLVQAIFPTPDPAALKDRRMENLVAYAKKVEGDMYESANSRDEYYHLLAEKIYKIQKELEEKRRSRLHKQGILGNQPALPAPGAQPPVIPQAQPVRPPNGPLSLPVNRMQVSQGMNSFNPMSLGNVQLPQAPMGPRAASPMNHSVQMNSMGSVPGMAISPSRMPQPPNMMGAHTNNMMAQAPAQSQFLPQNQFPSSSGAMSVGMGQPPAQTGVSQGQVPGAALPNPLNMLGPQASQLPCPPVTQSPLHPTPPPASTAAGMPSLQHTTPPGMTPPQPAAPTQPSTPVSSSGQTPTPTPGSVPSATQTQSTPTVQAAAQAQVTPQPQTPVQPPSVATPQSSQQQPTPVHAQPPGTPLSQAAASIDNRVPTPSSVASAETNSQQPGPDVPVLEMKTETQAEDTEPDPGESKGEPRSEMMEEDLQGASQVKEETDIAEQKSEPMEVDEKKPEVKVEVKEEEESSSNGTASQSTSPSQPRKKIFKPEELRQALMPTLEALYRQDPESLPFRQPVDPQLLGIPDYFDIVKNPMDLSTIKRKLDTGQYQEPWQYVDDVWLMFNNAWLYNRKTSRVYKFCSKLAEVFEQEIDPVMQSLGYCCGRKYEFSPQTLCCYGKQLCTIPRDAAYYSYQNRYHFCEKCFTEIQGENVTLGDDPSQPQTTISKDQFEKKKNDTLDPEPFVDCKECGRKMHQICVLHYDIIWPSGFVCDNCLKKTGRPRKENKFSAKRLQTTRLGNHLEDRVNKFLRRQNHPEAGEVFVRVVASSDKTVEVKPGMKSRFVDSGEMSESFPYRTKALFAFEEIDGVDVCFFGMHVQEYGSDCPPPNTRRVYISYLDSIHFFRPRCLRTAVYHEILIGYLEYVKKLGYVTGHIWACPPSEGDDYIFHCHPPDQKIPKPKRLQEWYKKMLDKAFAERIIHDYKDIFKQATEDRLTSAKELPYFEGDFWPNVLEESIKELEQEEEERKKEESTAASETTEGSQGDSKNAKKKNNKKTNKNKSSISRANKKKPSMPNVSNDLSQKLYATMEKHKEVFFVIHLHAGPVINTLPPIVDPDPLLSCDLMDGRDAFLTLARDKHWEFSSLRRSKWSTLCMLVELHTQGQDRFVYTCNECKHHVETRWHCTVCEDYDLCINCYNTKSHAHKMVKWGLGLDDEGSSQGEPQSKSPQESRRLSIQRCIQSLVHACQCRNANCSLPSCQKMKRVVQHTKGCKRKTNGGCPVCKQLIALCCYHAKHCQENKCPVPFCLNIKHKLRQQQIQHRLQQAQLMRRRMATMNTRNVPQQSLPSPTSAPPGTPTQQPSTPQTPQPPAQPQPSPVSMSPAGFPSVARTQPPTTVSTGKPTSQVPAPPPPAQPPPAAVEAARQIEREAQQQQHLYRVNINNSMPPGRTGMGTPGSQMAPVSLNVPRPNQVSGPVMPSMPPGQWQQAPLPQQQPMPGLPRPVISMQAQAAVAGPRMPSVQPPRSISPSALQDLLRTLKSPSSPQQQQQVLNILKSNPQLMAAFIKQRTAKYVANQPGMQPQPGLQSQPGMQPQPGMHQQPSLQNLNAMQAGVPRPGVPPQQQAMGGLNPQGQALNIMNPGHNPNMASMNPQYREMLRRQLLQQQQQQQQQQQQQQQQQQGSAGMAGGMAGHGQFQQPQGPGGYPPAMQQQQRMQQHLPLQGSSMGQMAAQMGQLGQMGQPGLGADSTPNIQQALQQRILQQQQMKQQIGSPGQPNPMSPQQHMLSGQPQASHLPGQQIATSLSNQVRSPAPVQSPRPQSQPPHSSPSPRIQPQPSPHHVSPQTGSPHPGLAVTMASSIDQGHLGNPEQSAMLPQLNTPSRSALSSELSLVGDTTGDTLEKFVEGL

[3] = target: T2, Histone acetyltransferase p300 (Homo sapiens, UniProt Q09472); test: Induction of p300 degradation in human RS4-11 cells incubated for 4 hrs by Western blot assay; type: cell-based; conditions: for DC50: rs4-11
T2 sequence (Q09472 whole entry): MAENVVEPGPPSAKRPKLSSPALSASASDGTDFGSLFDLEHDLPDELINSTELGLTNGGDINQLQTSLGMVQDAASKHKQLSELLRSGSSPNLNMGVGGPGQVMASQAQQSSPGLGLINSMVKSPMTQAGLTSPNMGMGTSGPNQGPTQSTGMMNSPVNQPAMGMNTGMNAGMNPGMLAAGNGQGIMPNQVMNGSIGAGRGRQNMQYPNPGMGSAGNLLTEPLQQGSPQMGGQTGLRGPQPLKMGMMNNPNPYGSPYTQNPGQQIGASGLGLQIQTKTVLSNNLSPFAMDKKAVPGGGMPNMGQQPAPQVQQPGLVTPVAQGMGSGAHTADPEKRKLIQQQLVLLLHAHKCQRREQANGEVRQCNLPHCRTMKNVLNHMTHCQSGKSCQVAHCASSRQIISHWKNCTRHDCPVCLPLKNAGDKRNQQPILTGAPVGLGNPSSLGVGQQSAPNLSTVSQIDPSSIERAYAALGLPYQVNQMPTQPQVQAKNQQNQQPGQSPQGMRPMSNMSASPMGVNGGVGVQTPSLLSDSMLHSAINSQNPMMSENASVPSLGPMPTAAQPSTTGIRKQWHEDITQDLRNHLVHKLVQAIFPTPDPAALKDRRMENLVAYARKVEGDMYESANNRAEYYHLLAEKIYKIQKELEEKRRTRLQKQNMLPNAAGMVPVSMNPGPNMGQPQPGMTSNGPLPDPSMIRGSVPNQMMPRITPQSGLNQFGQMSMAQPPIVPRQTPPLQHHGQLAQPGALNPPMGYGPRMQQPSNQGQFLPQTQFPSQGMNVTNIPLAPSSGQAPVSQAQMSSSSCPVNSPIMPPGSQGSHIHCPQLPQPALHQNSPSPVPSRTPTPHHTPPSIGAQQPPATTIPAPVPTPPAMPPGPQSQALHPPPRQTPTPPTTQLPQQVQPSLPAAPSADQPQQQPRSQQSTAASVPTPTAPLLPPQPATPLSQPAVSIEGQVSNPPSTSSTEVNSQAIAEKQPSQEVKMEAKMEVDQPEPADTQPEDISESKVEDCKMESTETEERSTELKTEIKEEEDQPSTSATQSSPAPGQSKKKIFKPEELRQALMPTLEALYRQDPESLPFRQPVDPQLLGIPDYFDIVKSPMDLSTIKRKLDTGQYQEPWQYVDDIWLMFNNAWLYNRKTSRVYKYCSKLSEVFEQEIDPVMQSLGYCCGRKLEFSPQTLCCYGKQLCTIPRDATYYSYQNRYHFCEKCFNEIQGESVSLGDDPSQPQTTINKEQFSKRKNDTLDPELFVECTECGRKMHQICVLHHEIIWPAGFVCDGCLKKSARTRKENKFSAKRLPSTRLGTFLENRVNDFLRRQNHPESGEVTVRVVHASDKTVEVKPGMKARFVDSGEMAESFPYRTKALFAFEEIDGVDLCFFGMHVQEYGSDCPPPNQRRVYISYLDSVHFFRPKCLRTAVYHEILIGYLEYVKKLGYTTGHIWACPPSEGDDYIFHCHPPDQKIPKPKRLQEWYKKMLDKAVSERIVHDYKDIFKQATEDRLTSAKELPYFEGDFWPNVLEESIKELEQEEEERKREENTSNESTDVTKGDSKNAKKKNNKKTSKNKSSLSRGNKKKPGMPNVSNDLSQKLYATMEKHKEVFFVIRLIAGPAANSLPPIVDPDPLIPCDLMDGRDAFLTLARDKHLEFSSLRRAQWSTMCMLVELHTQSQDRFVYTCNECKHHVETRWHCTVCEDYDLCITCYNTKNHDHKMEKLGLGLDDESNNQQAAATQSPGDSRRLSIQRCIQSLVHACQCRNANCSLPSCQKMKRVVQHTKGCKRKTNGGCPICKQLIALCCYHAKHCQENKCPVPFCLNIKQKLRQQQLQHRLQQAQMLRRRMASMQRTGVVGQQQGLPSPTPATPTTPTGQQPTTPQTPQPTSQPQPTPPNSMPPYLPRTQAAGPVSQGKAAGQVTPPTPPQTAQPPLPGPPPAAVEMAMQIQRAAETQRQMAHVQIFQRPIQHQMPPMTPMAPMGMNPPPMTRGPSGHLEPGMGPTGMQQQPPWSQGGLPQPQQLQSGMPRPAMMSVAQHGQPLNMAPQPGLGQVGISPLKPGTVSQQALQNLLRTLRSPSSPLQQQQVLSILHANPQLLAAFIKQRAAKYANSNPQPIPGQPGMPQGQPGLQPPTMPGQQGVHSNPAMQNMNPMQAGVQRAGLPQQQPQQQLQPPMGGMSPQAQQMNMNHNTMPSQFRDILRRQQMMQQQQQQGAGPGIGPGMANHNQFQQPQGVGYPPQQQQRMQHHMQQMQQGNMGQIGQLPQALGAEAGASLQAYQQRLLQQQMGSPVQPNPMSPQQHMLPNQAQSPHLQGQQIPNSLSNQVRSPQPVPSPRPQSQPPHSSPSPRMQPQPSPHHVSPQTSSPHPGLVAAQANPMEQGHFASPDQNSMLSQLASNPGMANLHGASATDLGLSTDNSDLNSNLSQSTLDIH

[4] = target: T2, Histone acetyltransferase p300; test: Induction of p300 degradation in human RS4-11 cells assessed as maximal degradation incubated for 4 hrs by Western blot assay relative to control; type: cell-based
RS4-11 [5] = test: Cytotoxicity against human RS4-11 cells assessed as maximum inhibition of cell growth incubated for 4 days by cellTiter-Glo assay relative to control; type: functional; conditions: time 4 day
RS4-11 [6] = test: Cytotoxicity against human RS4-11 cells assessed as inhibition of cell growth incubated for 4 days by cellTiter-Glo assay; type: functional, cell-based; conditions: RS4-11, 96 h
MV4-11 [7] = test: Cytotoxicity against human MV4-11 cells assessed as maximum inhibition of cell growth incubated for 4 days by cellTiter-Glo assay relative to control; type: functional; conditions: time 4 day
MV4-11 [8] = test: Cytotoxicity against human MV4-11 cells assessed as inhibition of cell growth incubated for 4 days by cellTiter-Glo assay; type: functional, cell-based; conditions: MV4-11, 96 h
HL-60 [9] = test: Cytotoxicity against human HL-60 cells assessed as inhibition of cell growth incubated for 4 days by cellTiter-Glo assay; type: functional, cell-based; conditions: HL-60, 96 h
HL-60 [10] = test: Cytotoxicity against human HL-60 cells assessed as maximum inhibition of cell growth incubated for 4 days by cellTiter-Glo assay relative to control; type: functional; conditions: time 4 day
MOLM-13 [11] = test: Cytotoxicity against human MOLM-13 cells assessed as inhibition of cell growth incubated for 4 days by cellTiter-Glo assay; type: functional, cell-based; conditions: MOLM-13, 96 h
MOLM-13 [12] = test: Cytotoxicity against human MOLM-13 cells assessed as maximum inhibition of cell growth incubated for 4 days by cellTiter-Glo assay relative to control; type: functional; conditions: time 4 day
RS4-11 [13] = test: Induction of cell cycle arrest in human RS4-11 cells assessed as accumulation at G1 phase at 1 uM measured after 8 hrs by PI staining based flow cytometric analysis; type: functional

Row | EC50 (CREB-binding protein [1]) | Emax (CREB-binding protein [2]) | DC50 [3] | Emax [4] | EC50 [3] | SMILES | Imax (RS4-11 [5]) | IC50 (RS4-11 [6]) | Imax (RS4-11 [5]; 96 h) | Imax (MV4-11 [7]) | IC50 (MV4-11 [8]) | IC50 (HL-60 [9]) | Imax (HL-60 [10]) | IC50 (MOLM-13 [11]) | Imax (MOLM-13 [12]) | Activity (RS4-11 [13])
1 | 3.3 nM | 95% | 0.3 nM | 99% | – | CC(=O)N1CCc2c(c(-c3cccc4cc(-c5ccc(C(=O)NCCCc6cccc7c6CN(C6CCC(=O)NC6=O)C7=O)nc5)ncc34)nn2C2CCOCC2)C1 (stereo unspecified) | 95% | 0.5 nM | – | – | – | – | – | – | – | –
2 | 0.6 nM | 99% | 1.8 nM | 97% | – | CC(=O)N1CCc2c(c(-c3cccc4cc(-c5ccc(C(=O)NCCNc6cccc7c6CN(C6CCC(=O)NC6=O)C7=O)nc5)ncc34)nn2C2CCOCC2)C1 (stereo unspecified) | 85% | 1.3 nM | – | – | – | – | – | – | – | –
3 | 1.8 nM | 86% | – | 25% | – | CC(=O)N1CCc2c(c(-c3cccc4cc(-c5ccc(C(=O)N6CCC(Nc7cccc8c7C(=O)N(C7CCC(=O)NC7=O)C8=O)CC6)nc5)ncc34)nn2C2CCOCC2)C1 (stereo unspecified) | 70% | 68 nM | – | – | – | – | – | – | – | –
4 | – | – | – | – | – | CNC(=O)Nc1ccc2c(c1)CC[C@]21CN(CC(=O)N(Cc2ccc(F)cc2)[C@H](C)C(F)(F)F)C(=O)O1 | – | – | 93.5% and 89% and 99% | 94% | 156 nM | 152 nM | 99% | 239 nM | 96% | –
5 | 1.7 nM | 66% | – | 37% | – | CC(=O)N1CCc2c(c(-c3cccc4cc(-c5ccc(C(=O)NCCNc6cccc7c6C(=O)N(C6CCC(=O)NC6=O)C7=O)nc5)ncc34)nn2C2CCOCC2)C1 (stereo unspecified) | 50% | 196 nM | – | – | – | – | – | – | – | –
6 | 1.1 nM | 80% | 5.1 nM | 73% | – | CC(=O)N1CCc2c(c(-c3cccc4cc(-c5ccc(C(=O)NCCNc6ccc7c(c6)CN(C6CCC(=O)NC6=O)C7=O)nc5)ncc34)nn2C2CCOCC2)C1 (stereo unspecified) | >95% | 0.1 nM | – | – | – | – | – | – | – | –
7 | 0.2 nM | 99% | 0.1 nM | 99% | – | CC(=O)N1CCc2c(c(-c3cccc4cc(-c5ccc(C(=O)NCCCCCc6cccc7c6CN(C6CCC(=O)NC6=O)C7=O)nc5)ncc34)nn2C2CCOCC2)C1 (stereo unspecified) | >95% | 0.2 nM | – | – | – | – | – | – | – | –
8 | – | – | – | – | – | CO[C@H]1CC[C@@H](n2c(C3CCCC(=O)N3c3ccc(F)c(F)c3)nc3cc(-c4c(C)noc4C)ccc32)CC1 (stereo partly specified) | 99.8% | 544 nM | – | 98% | 51.6 nM | 30 nM | 99% | 23 nM | 99% | Active
9 | 1.3 nM | 70% | – | 77% | 0.8 nM | CC(=O)N1CCc2c(c(-c3cccc4cc(-c5ccc(C(=O)NCCCCNc6cccc7c6C(=O)N(C6CCC(=O)NC6=O)C7=O)nc5)ncc34)nn2C2CCOCC2)C1 (stereo unspecified) | >95% | 0.4 nM | – | – | – | – | – | – | – | –
10 | 0.6 nM | 99% | – | 87% | 0.6 nM | CC(=O)N1CCc2c(c(-c3cccc4cc(-c5ccc(C(=O)NCCCCCCNc6cccc7c6C(=O)N(C6CCC(=O)NC6=O)C7=O)nc5)ncc34)nn2C2CCOCC2)C1 (stereo unspecified) | 80% | 0.3 nM | – | – | – | – | – | – | – | –
11 | 1 nM | 99% | – | 99% | 1.9 nM | CC(=O)N1CCc2c(c(-c3cccc4cc(-c5ccc(C(=O)NC6CCN(c7ccc8c(c7)C(=O)N(C7CCC(=O)NC7=O)C8=O)CC6)nc5)ncc34)nn2C2CCOCC2)C1 (stereo unspecified) | 83% | 20 nM | – | – | – | – | – | – | – | –
12 | – | 21% | – | 10% | – | CC(=O)N1CCc2c(c(-c3cccc4cc(-c5ccc(C(=O)N6CCC7(CCC(Nc8cccc9c8C(=O)N(C8CCC(=O)NC8=O)C9=O)CC7)CC6)nc5)ncc34)nn2C2CCOCC2)C1 (stereo unspecified) | 65% | 70 nM | – | – | – | – | – | – | – | –
13 | 0.2 nM | 99% | – | 99% | 1.6 nM | CC(=O)N1CCc2c(c(-c3cccc4cc(-c5ccc(C(=O)N6CCN(c7cccc8c7C(=O)N(C7CCC(=O)NC7=O)C8=O)CC6)nc5)ncc34)nn2C2CCOCC2)C1 (stereo unspecified) | 86% | 0.6 nM | – | – | – | – | – | – | – | –
14 | – | – | – | – | – | CNC(=O)N1CCc2c(c(N3CCCc4cc(-c5cnn(C)c5)c(C(F)F)cc43)nn2C2CCN(C(=O)CCOCCOCCOCCOCCNc3ccc4c(c3)C(=O)N(C3CCC(=O)NC3=O)C4=O)CC2)C1 (stereo unspecified) | 89% | 4.8 nM | – | – | – | – | – | – | – | –
15 | – | – | – | – | – | CNC(=O)c1ccc(-c2cc3cccc(-c4nn(C5CCOCC5)c5c4CN(C(C)=O)CC5)c3cn2)cn1 | 75% | – | – | 94% | – | – | 99% | – | 98% | –
16 | – | – | – | – | – | C[C@H](N(Cc1ccc(F)cc1)C(=O)CN1C(=O)O[C@@]2(CCc3cc(NC(=O)CCCCCCCCCCCNc4ccc5c(c4)C(=O)N(C4CCC(=O)NC4=O)C5=O)ccc32)C1=O)C(F)(F)F (stereo partly specified) | 99% | 91 nM | – | – | – | – | – | – | – | –
17 | 0.2 nM | 99% | – | 97% | 1.6 nM | CC(=O)N1CCc2c(c(-c3cccc4cc(-c5ccc(C(=O)NCCCCCCCCNc6cccc7c6C(=O)N(C6CCC(=O)NC6=O)C7=O)nc5)ncc34)nn2C2CCOCC2)C1 (stereo unspecified) | 87% | 1.5 nM | – | – | – | – | – | – | – | –
18 | < 0.1 nM | 99% | 0.3 nM | 99% | – | CC(=O)N1CCc2c(c(-c3cccc4cc(-c5ccc(C(=O)NCCCNc6ccc7c(c6)CN(C6CCC(=O)NC6=O)C7=O)nc5)ncc34)nn2C2CCOCC2)C1 (stereo unspecified) | >95% | 0.1 nM | – | – | – | – | – | – | – | –
19 | 12 nM | 99% | – | 87% | 2.3 nM | CC(=O)N1CCc2c(c(-c3cccc4cc(-c5ccc(C(=O)NCCCCCCCNc6cccc7c6C(=O)N(C6CCC(=O)NC6=O)C7=O)nc5)ncc34)nn2C2CCOCC2)C1 (stereo unspecified) | 90% | 1.6 nM | – | – | – | – | – | – | – | –
20 | 3.7 nM | 85% | – | 40% | – | CC(=O)N1CCc2c(c(-c3cccc4cc(-c5ccc(C(=O)N6CCC(C7CN(c8cccc9c8C(=O)N(C8CCC(=O)NC8=O)C9=O)C7)CC6)nc5)ncc34)nn2C2CCOCC2)C1 (stereo unspecified) | >95% | 2.4 nM | – | – | – | – | – | – | – | –
21 | 0.2 nM | 80% | < 0.1 nM | 99% | – | CC(=O)N1CCc2c(c(-c3cccc4cc(-c5ccc(C(=O)NCCCCc6cccc7c6CN(C6CCC(=O)NC6=O)C7=O)nc5)ncc34)nn2C2CCOCC2)C1 (stereo unspecified) | >95% | 0.1 nM | – | – | – | – | – | – | – | –
22 | 1.2 nM | 71% | – | 90% | 0.7 nM | CC(=O)N1CCc2c(c(-c3cccc4cc(-c5ccc(C(=O)NCCCNc6cccc7c6C(=O)N(C6CCC(=O)NC6=O)C7=O)nc5)ncc34)nn2C2CCOCC2)C1 (stereo unspecified) | >95% | 0.1 nM | – | – | – | – | – | – | – | –
23 | 40 nM | 58% | – | 10% | – | CC(=O)N1CCc2c(c(-c3cccc4cc(-c5ccc(C(=O)N6CCC(C7CCN(c8cccc9c8C(=O)N(C8CCC(=O)NC8=O)C9=O)CC7)CC6)nc5)ncc34)nn2C2CCOCC2)C1 (stereo unspecified) | 88% | 24 nM | – | – | – | – | – | – | – | –
24 | 1.7 nM | 96% | – | 51% | 9.3 nM | CC(=O)N1CCc2c(c(-c3cccc4cc(-c5ccc(C(=O)N6CCC7(CC6)CC(Nc6cccc8c6C(=O)N(C6CCC(=O)NC6=O)C8=O)C7)nc5)ncc34)nn2C2CCOCC2)C1 (stereo unspecified) | 71% | 51 nM | – | – | – | – | – | – | – | –
25 | 0.2 nM | 98% | 1.8 nM | 95% | – | CC(=O)N1CCc2c(c(-c3cccc4cc(-c5ccc(C(=O)NCCCNc6cccc7c6CN(C6CCC(=O)NC6=O)C7=O)nc5)ncc34)nn2C2CCOCC2)C1 (stereo unspecified) | >95% | 0.1 nM | – | – | – | – | – | – | – | –
26 | 4.8 nM | 81% | – | 62% | 25 nM | CC(=O)N1CCc2c(c(-c3cccc4cc(-c5ccc(C(=O)N6CC7(CCC(Nc8cccc9c8C(=O)N(C8CCC(=O)NC8=O)C9=O)CC7)C6)nc5)ncc34)nn2C2CCOCC2)C1 (stereo unspecified) | 75% | 44 nM | – | – | – | – | – | – | – | –
27 | 0.3 nM | 99% | – | 95% | 1.1 nM | CC(=O)N1CCc2c(c(-c3cccc4cc(-c5ccc(C(=O)N6CC7(CC(Nc8cccc9c8C(=O)N(C8CCC(=O)NC8=O)C9=O)C7)C6)nc5)ncc34)nn2C2CCOCC2)C1 (stereo unspecified) | 85% | 11 nM | – | – | – | – | – | – | – | –
28 | 1 nM | 92% | – | 95% | 0.3 nM | CC(=O)N1CCc2c(c(-c3cccc4cc(-c5ccc(C(=O)NCCCCCNc6cccc7c6C(=O)N(C6CCC(=O)NC6=O)C7=O)nc5)ncc34)nn2C2CCOCC2)C1 (stereo unspecified) | >95% | 2.2 nM | – | – | – | – | – | – | – | –
